According to patent publication US9079974B2, “GH-RH analogs with potent agonistic effects” (The University of Miami, priority 2011, dated 2015):
“Also recorded” adds a separate entry of the source. Square brackets hold non-standard residues; d marks the D form. Peptide text beside a SMILES is read from it. * marks the point of attachment. NMeY = CN[C@@H](Cc1ccc(O)cc1)C(=O)O; Agmatine = N=C(N)NCCCCN*; Nle = CCCC[C@H](N)C(=O)O; Orn = NCCC[C@H](N)C(=O)O; Abu = CC[C@H](N)C(=O)O

Experiments:
[1] = target: dipeptidylpeptidase IV (DPP-IV) (Homo sapiens, UniProt P27487); conditions: cited from earlier work
[2] = system: superfused rat pituitary cells; test: GH release in superfused rat pituitary cell system; assay type: cell-based; conditions: 1 nM
Protocol: Growth hormone releasing is assayed by using a superfused rat pituitary cell system as described in S. Vigh and A. V. Schally, Peptides 5, Suppl: 241-347, 1984, which is incorporated by reference herein. The new synthetic peptide analogs of hGH-RH P20356 and JI-38 as control are administered for 3 minutes (1 mL perfusate) at 1 nM concentration as shown below. Fractions of 1 ml are collected and the GH content in each is determined by ELISA. […] Effect of hGH-RH analogs (1 nM) on the GH release in superfused rat pituitary cell system
Pituitary cells from 2 male rates were used for each channel of the superfusion system. The cells were exposed to 3-min pulses of the new GHRH agonists or to JI-38 as standard every 30 min. Outflowing samples of each channel (1 ml) were collected every 3 min, and GH levels were determined by ELISA.

GH release = test: In vivo GH release after subcutaneous administration; conditions: rat, s.c.
Protocol: Blood samples are taken from the jugular vein; 5, 15 and 30 minutes or only 15 and 30 minutes after the injection. The blood samples are centrifuged, plasma is removed and the GH level is measured by ELISA. The results are summarized in terms of potency in Table 9.

Sequence of dipeptidylpeptidase IV (DPP-IV) (P27487 39-766 limits assumed, species assumed): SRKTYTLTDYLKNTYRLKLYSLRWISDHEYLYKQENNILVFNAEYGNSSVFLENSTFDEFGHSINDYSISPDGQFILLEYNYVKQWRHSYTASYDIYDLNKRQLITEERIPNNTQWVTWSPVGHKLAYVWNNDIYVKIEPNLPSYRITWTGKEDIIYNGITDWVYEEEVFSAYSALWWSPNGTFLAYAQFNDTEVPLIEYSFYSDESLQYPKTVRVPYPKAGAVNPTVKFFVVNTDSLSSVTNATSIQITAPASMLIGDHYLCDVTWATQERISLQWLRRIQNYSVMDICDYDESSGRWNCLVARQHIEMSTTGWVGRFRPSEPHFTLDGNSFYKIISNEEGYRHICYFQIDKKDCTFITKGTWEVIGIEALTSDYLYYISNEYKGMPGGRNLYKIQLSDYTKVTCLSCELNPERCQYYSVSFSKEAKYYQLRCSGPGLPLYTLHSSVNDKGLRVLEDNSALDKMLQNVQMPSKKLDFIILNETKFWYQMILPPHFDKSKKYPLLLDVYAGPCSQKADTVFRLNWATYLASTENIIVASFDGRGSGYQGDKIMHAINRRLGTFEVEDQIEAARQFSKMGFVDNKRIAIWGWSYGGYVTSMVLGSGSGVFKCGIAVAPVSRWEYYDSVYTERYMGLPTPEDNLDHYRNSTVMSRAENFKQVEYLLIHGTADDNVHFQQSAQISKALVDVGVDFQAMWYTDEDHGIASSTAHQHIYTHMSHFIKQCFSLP

For “hGH-RH: native human GH-RH, 44 amino acids with an amidated carboxyl terminus”, the “degradation in plasma via DPP-IV cleavage between residues 2 and 3” value [1] is listed as “rapidly degraded”.

For `CCCC[C@H](NC(=O)[C@@H](NC(=O)[C@H](CC(=O)O)NC(=O)[C@H](CCC(N)=O)NC(=O)[C@H](CC(C)C)NC(=O)[C@H](CC(C)C)NC(=O)[C@H](CCCN)NC(=O)[C@H](CCCNC(=N)N)NC(=O)[C@H](C)NC(=O)[C@H](CO)NC(=O)[C@H](CC(C)C)NC(=O)[C@H](CCC(N)=O)NC(=O)[C@H](CC)NC(=O)[C@H](CC(C)C)NC(=O)[C@@H](NC(=O)[C@H](CCCN)NC(=O)[C@H](CCCNC(=N)N)NC(=O)[C@H](Cc1ccc(O)cc1)NC(=O)[C@H](CO)NC(=O)[C@H](CCC(N)=O)NC(=O)[C@@H](NC(=O)[C@H](Cc1ccccc1)NC(=O)[C@@H](NC(=O)[C@H](C)NC(=O)[C@H](CC(=O)O)NC(=O)[C@H](C)NC(=O)[C@H](Cc1ccc(O)cc1)NC)[C@@H](C)CC)[C@@H](C)O)C(C)C)[C@@H](C)CC)C(=O)N[C@@H](CC(=O)O)C(=O)NCCCCNC(=N)N` [Peptide P-20356, [N—Me-Tyr^1, Gln^8, Orn^12, Abu^15, Orn^21, Nle^27, Asp^28, Agm^29]hGH-RH(1-29)] (H-[NMeY]ADAIFTQSYR[Orn]VL[Abu]QLSAR[Orn]LLQDI[Nle]D-Agmatine), the “times more potent in vitro than JI-38 (GH release)” value [2] was “about 3 times” and the “GH response after subcutaneous administration (in words)” value (GH release) was “unusually high responses; also recorded: especially greater growth hormone levels than hGH-RH or JI-38”.
